Laboratory results reported in patent US20230085307A1, “PYRIDAZINONE COMPOUND AND HERBICIDE” (NISSAN CHEMICAL CORPORATION, priority 2019, published 2023).

Assays:
[1] = system: barnyard grass; assay: Test Example 5: herbicidal effect by foliage application, plastic box (Table 20, symbol H); format: in vivo, barnyard grass (Echinochloa crus-galli); conditions: foliage application; for herbicidal effect on H: barnyard grass: evaluated three weeks after application
Summary of the method: (§1)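 Plants were sown into sterilized diluvial soil under about 1.5 cm cover and kept in a greenhouse at 25° C. to 30° C. Fourteen days on, foliage received an even spray of the diluted emulsion. Herbicidal or crop effect was judged three weeks afterwards.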

[2] = system: persian speedwell; assay: Test Example 4: herbicidal effect by soil treatment (Table 19, symbol R); format: in vivo, Persian speedwell (Veronica persica)
Summary of the method: (§2)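 Pre-emergence style soil spray: seeds under ~1.5 cm sterilized diluvial soil received a uniform coat of emulsion diluted to the predetermined herbicide amount. Greenhouse 25–30° C; readout at week three on previously defined criteria.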

[3] = system: lambsquarters; assay: Test Example 4: herbicidal effect by soil treatment (Table 19, symbol O); format: in vivo, lambsquarters (Chenopodium album)
Summary of the method: as §2

[4] = system: barnyard grass; assay: Test Example 4: herbicidal effect by soil treatment (Table 19, symbol H); format: in vivo, barnyard grass (Echinochloa crus-galli)
Summary of the method: as §2

[5] = system: blackgrass; assay: Test Example 5: herbicidal effect by foliage application, plastic box (Table 20, symbol J); format: in vivo, blackgrass (Alopecurus myosuroides); conditions: foliage application; for herbicidal effect on J: blackgrass: evaluated three weeks after application
Summary of the method: as §1

[6] = system: oval-leafed pondweed; assay: Test Example 1: herbicidal activity, application before weed generation under submerged conditions (Table 16, symbol C); format: in vivo, oval-leafed pondweed (Monochoria vaginalis); conditions: 320 g/ha applied herbicide
Summary of the method: (§3)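 Emulsion formulation, water-diluted to set dose, was put onto the flooded surface (4 cm depth, alluvial soil) the same day weeds were sown and 2.5-leaf rice transplanted. After 3 weeks at 25-30 °C under glass, each species was rated 0 (≤5% kill) to 5 (≥90% kill).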

[7] = system: Japanese bulrush; assay: Test Example 1: herbicidal activity, application before weed generation under submerged conditions (Table 16, symbol B); format: in vivo, Japanese bulrush (Schoenoplectus juncoides); conditions: 320 g/ha applied herbicide
Summary of the method: as §3

[8] = system: late watergrass; assay: Test Example 2: herbicidal activity, application during weed generation under submerged conditions (Table 17, symbol A); format: in vivo, late watergrass (Echinochloa oryzicola); conditions: AAH 320 g/ha; application during weed generation, submerged conditions
Summary of the method: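 In this pot test, flooded alluvial soil (water depth 4 cm) holds all three species sown as a mixture. Once seedlings have one to two leaves, the compound's emulsion, thinned with water to the intended dose, is poured on the water; grading follows after three weeks on the earlier criteria.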

[9] = system: Chinese sprangletop; assay: Test Example 3: herbicidal effect by foliage application, Wagner pot (Table 18, symbol D); format: in vivo, chinese sprangletop (Leptochloa chinensis); conditions: 320 g/ha
Summary of the method: (§4)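 Plants were sown in alluvial soil held under 0.1–0.5 cm standing water and grown 14 days in a greenhouse at 25–30 °C. An emulsifiable formulation, water-diluted to the set dose, was then sprayed onto the foliage, and effects were scored three weeks later using previously defined criteria.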

[10] = system: barnyard grass; assay: Test Example 3: herbicidal effect by foliage application, Wagner pot (Table 18, symbol H); format: in vivo, barnyard grass (Echinochloa crus-galli); conditions: 320 g/ha
Summary of the method: as §4

[11] = system: Italian ryegrass; assay: Test Example 5: herbicidal effect by foliage application, plastic box (Table 20, symbol K); format: in vivo, Italian ryegrass (Lolium multiflorum); conditions: foliage application; for herbicidal effect on K: Italian ryegrass: evaluated three weeks after application
Summary of the method: as §1

[12] = system: lambsquarters; assay: Test Example 5: herbicidal effect by foliage application, plastic box (Table 20, symbol O); format: in vivo, lambsquarters (Chenopodium album); conditions: foliage application; for herbicidal effect on O: lambsquarters: evaluated three weeks after application
Summary of the method: as §1

[13] = system: windgrass; assay: Test Example 4: herbicidal effect by soil treatment (Table 19, symbol L); format: in vivo, windgrass (Apera spica-venti)
Summary of the method: as §2

[14] = system: velvetleaf; assay: Test Example 4: herbicidal effect by soil treatment (Table 19, symbol M); format: in vivo, velvetleaf (Abutilon theophrasti)
Summary of the method: as §2

[15] = system: velvetleaf; assay: Test Example 5: herbicidal effect by foliage application, plastic box (Table 20, symbol M); format: in vivo, velvetleaf (Abutilon theophrasti); conditions: foliage application; for herbicidal effect on M: velvetleaf: evaluated three weeks after application
Summary of the method: as §1

[16] = system: redroot pigweed; assay: Test Example 5: herbicidal effect by foliage application, plastic box (Table 20, symbol N); format: in vivo, redroot pigweed (Amaranthus retroflexus); conditions: foliage application; for herbicidal effect on N: redroot pigweed: evaluated three weeks after application
Summary of the method: as §1

[17] = AAH 320 g/ha, three weeks after application
[18] = 320 g/ha, three weeks after application
[19] = amount of applied herbicide 320 g/ha

SMILES | herbicidal effect on H: barnyard grass ([1]; 320 g/ha) | herbicidal effect rating, R: persian speedwell ([2]; 320 g/ha) | herbicidal effect rating, O: lambsquarters ([3]; 320 g/ha) | herbicidal effect rating, H: barnyard grass ([4]; 320 g/ha) | herbicidal effect on J: blackgrass ([5]; 320 g/ha) | Herbicidal effect on C: oval-leafed pondweed (grade 0-5) [6] | Herbicidal effect on B: Japanese bulrush (grade 0-5) [7] | herbicidal effect rating, A: late watergrass [8] | herbicidal effect on D (Chinese sprangletop), rating 0-5 [9] | herbicidal effect on H (barnyard grass), rating 0-5 [10] | herbicidal effect on K: Italian ryegrass ([11]; 320 g/ha) | herbicidal effect on O: lambsquarters ([12]; 320 g/ha) | herbicidal effect rating, L: windgrass ([13]; 320 g/ha) | herbicidal effect rating, M: velvetleaf ([14]; 320 g/ha) | herbicidal effect on M: velvetleaf ([15]; 320 g/ha) | herbicidal effect on N: redroot pigweed ([16]; 320 g/ha) | also measured
COCCOc1ccc(-c2sc3ccc(F)cc3c2-c2c(O)c(C)nn(C)c2=O)cc1 [2-056] | 5 (Herbicidal rate of 90% or more (almost completely withered)) | 5 (Herbicidal rate of 90% or more (almost completely withered)) | 5 (Herbicidal rate of 90% or more (almost completely withered)) | 5 (Herbicidal rate of 90% or more (almost completely withered)) | 5 (Herbicidal rate of 90% or more (almost completely withered)) | 5 (Herbicidal rate of 90% or more (almost completely withered)) | 5 (Herbicidal rate of 90% or more (almost completely withered)) | 3 (Herbicidal rate of 40% or more and less than 70%) | 5 (Herbicidal rate of 90% or more (almost completely withered)) | 5 (Herbicidal rate of 90% or more (almost completely withered)) | 4 (Herbicidal rate of 70% or more and less than 90%) | 5 (Herbicidal rate of 90% or more (almost completely withered)) | 0 (Herbicidal rate of 5% or less (almost no effect)) | 5 (Herbicidal rate of 90% or more (almost completely withered)) | 5 (Herbicidal rate of 90% or more (almost completely withered)) | 5 (Herbicidal rate of 90% or more (almost completely withered)) | –
CCCC(=O)Oc1c(C)nn(C)c(=O)c1-c1c(-c2ccc([N+](=O)[O-])cc2)sc2ccccc12 [1-152] | – | – | – | – | – | 5 (Herbicidal rate of 90% or more (almost completely withered)) | 3 (Herbicidal rate of 40% or more and less than 70%) | 3 (Herbicidal rate of 40% or more and less than 70%) | 5 (Herbicidal rate of 90% or more (almost completely withered)) | 5 (Herbicidal rate of 90% or more (almost completely withered)) | – | – | – | – | – | – | H: barnyard grass, herbicidal effect [1, 17]: 4 (Herbicidal rate of 70% or more and less than 90%); R: persian speedwell, herbicidal effect rating ([2]; AAH 320 g/ha): 3 (Herbicidal rate of 40% or more and less than 70%); O: lambsquarters, herbicidal effect rating ([3]; AAH 320 g/ha): 0 (Herbicidal rate of 5% or less (almost no effect)); H: barnyard grass, herbicidal effect rating ([4]; AAH 320 g/ha): 3 (Herbicidal rate of 40% or more and less than 70%); J: blackgrass, herbicidal effect [5, 17]: 0 (Herbicidal rate of 5% or less (almost no effect)); K: Italian ryegrass, herbicidal effect [11, 17]: 4 (Herbicidal rate of 70% or more and less than 90%); O: lambsquarters, herbicidal effect [12, 17]: 4 (Herbicidal rate of 70% or more and less than 90%); L: windgrass, herbicidal effect rating ([13]; AAH 320 g/ha): 0 (Herbicidal rate of 5% or less (almost no effect)); M: velvetleaf, herbicidal effect rating ([14]; AAH 320 g/ha): 0 (Herbicidal rate of 5% or less (almost no effect)); M: velvetleaf, herbicidal effect [15, 17]: 5 (Herbicidal rate of 90% or more (almost completely withered)); N: redroot pigweed, herbicidal effect [16, 17]: 5 (Herbicidal rate of 90% or more (almost completely withered))
COc1ccc(-c2sc3ccc(F)cc3c2-c2c(O)c(C)nn(C)c2=O)cc1OC [2-088] | 3 (Herbicidal rate of 40% or more and less than 70%) | 3 (Herbicidal rate of 40% or more and less than 70%) | 4 (Herbicidal rate of 70% or more and less than 90%) | 4 (Herbicidal rate of 70% or more and less than 90%) | 0 (Herbicidal rate of 5% or less (almost no effect)) | 0 (Herbicidal rate of 5% or less (almost no effect)) | 2 (Herbicidal rate of 20% or more and less than 40%) | 3 (Herbicidal rate of 40% or more and less than 70%) | 3 (Herbicidal rate of 40% or more and less than 70%) | 5 (Herbicidal rate of 90% or more (almost completely withered)) | 4 (Herbicidal rate of 70% or more and less than 90%) | 4 (Herbicidal rate of 70% or more and less than 90%) | 0 (Herbicidal rate of 5% or less (almost no effect)) | 2 (Herbicidal rate of 20% or more and less than 40%) | 5 (Herbicidal rate of 90% or more (almost completely withered)) | 5 (Herbicidal rate of 90% or more (almost completely withered)) | –
Cc1nn(C)c(=O)c(-c2c(-c3ccc(C#N)cc3)sc3ccccc23)c1O [Compound No. 1-045, 5-hydroxy-2,6-dimethyl-4-(2-(4-cyanophenyl)benzo[b]thiophen-3-yl)pyridazin-3(2H)-one] | – | – | – | – | – | 4 (Herbicidal rate of 70% or more and less than 90%) | 4 (Herbicidal rate of 70% or more and less than 90%) | 1 (Herbicidal rate of 5% or more and less than 20%) | 4 (Herbicidal rate of 70% or more and less than 90%) | 5 (Herbicidal rate of 90% or more (almost completely withered)) | – | – | – | – | – | – | herbicidal effect grade, H: barnyard grass [1, 18]: 4 (Herbicidal rate of 70% or more and less than 90%); herbicidal effect rating, R: persian speedwell [2, 19]: 5 (Herbicidal rate of 90% or more (almost completely withered)); herbicidal effect rating, O: lambsquarters [3, 19]: 5 (Herbicidal rate of 90% or more (almost completely withered)); herbicidal effect rating, H: barnyard grass [4, 19]: 5 (Herbicidal rate of 90% or more (almost completely withered)); herbicidal effect grade, J: blackgrass [5, 18]: 0 (Herbicidal rate of 5% or less (almost no effect)); herbicidal effect grade, K: Italian ryegrass [11, 18]: 5 (Herbicidal rate of 90% or more (almost completely withered)); herbicidal effect grade, O: lambsquarters [12, 18]: 5 (Herbicidal rate of 90% or more (almost completely withered)); herbicidal effect rating, L: windgrass [13, 19]: 0 (Herbicidal rate of 5% or less (almost no effect)); herbicidal effect rating, M: velvetleaf [14, 19]: 5 (Herbicidal rate of 90% or more (almost completely withered)); herbicidal effect grade, M: velvetleaf [15, 18]: 5 (Herbicidal rate of 90% or more (almost completely withered)); herbicidal effect grade, N: redroot pigweed [16, 18]: 5 (Herbicidal rate of 90% or more (almost completely withered))
